Source: patent US11820773B2, “Tricyclic compounds” (ALIGOS THERAPEUTICS, INC., priority 2020, dated 2023)

tested on: HBV; experiment: HBV-DNA antiviral assay using HepG2.117 cells (intracellular HBV DNA by qPCR); type: cell-based, genotype D HBV; conditions: Hepatitis B virus, 72 h, HBV DNA inhibition, 3 days incubation, 2% DMSO
How it was run: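 Endpoints are intracellular HBV DNA by qPCR (interpolated from a gBlock standard curve) and ATP-based viability in duplicate plates. Doxycycline-free HepG2.117 Tet-off cells received compounds (9 concentrations, 4-fold steps, 2% DMSO) for 3 days. Inhibition normalised to DMSO wells; EC50/EC90/CC50 by curve fitting.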

Row | Structure (SMILES) | EC50 [nM]
1 | CNC(=O)c1ccc(-n2c(=O)c3c(n4ncc(CC(C)C)c24)CN(C(=O)c2ccc(Br)c(C(F)(F)F)c2)[C@H](C)C3)cc1 (stereo in doubt) [Compound 50a, N-methyl-4-[rac-(11R)-12-[4-bromo-3-(trifluoromethyl)benzoyl]-5-isobutyl-11-methyl-8-oxo-2,3,7,12-tetrazatricyclo[7.4.0.0^2,6]trideca-1(9),3,5-trien-7-yl]benzamide] | < 50
2 | CNC(=O)c1ccc(-n2c(=O)c3c(n4ncc(CC(C)C)c24)CN(C(=O)c2ccc(Br)c(C(F)(F)F)c2)[C@@H](C)C3)cc1 (stereo in doubt) [Compound 50b, N-methyl-4-[rac-(11S)-12-[4-bromo-3-(trifluoromethyl)benzoyl]-5-isobutyl-11-methyl-8-oxo-2,3,7,12-tetrazatricyclo[7.4.0.0^2,6]trideca-1(9),3,5-trien-7-yl]benzamide] | 50 to 500
3 | C[C@@H]1Cc2c(n3ncc(CC4CCC4)c3n(-c3ccc(-c4nncn4C)cc3)c2=O)CN1C(=O)c1ccc(Cl)c(C(F)(F)F)c1 (stereo in doubt) [Compound 51a, rac-(11R)-12-[4-chloro-3-(trifluoromethyl)benzoyl]-5-(cyclobutylmethyl)-11-methyl-7-[4-(4-methyl-1,2,4-triazol-3-yl)phenyl]-2,3,7,12-tetrazatricyclo[7.4.0.0^2,6]trideca-1(9),3,5-trien-8-one] | < 50
4 | C[C@H]1Cc2c(n3ncc(CC4CCC4)c3n(-c3ccc(-c4nncn4C)cc3)c2=O)CN1C(=O)c1ccc(Cl)c(C(F)(F)F)c1 (stereo in doubt) [Compound 51b, rac-(11S)-12-[4-chloro-3-(trifluoromethyl)benzoyl]-5-(cyclobutylmethyl)-11-methyl-7-[4-(4-methyl-1,2,4-triazol-3-yl)phenyl]-2,3,7,12-tetrazatricyclo[7.4.0.0^2,6]trideca-1(9),3,5-trien-8-one] | 500 to 5000
5 | Cc1nnc(-c2ccc(-n3c(=O)c4c(n5ncc(Cc6ccccc6)c35)CN(C(=O)c3ccc(Cl)c(C(F)(F)F)c3)[C@H](C)C4)cc2)[nH]1 (stereo in doubt) [Compound 52a, rac-(11R)-5-benzyl-12-[4-chloro-3-(trifluoromethyl)benzoyl]-11-methyl-7-[4-(5-methyl-4H-1,2,4-triazol-3-yl)phenyl]-2,3,7,12-tetrazatricyclo[7.4.0.0^2,6]trideca-1(9),3,5-trien-8-one] | < 50
6 | Cc1nnc(-c2ccc(-n3c(=O)c4c(n5ncc(Cc6ccccc6)c35)CN(C(=O)c3ccc(Cl)c(C(F)(F)F)c3)[C@@H](C)C4)cc2)[nH]1 (stereo in doubt) [Compound 52b, rac-(11S)-5-benzyl-12-[4-chloro-3-(trifluoromethyl)benzoyl]-11-methyl-7-[4-(5-methyl-4H-1,2,4-triazol-3-yl)phenyl]-2,3,7,12-tetrazatricyclo[7.4.0.0^2,6]trideca-1(9),3,5-trien-8-one] | 50 to 500
7 | Cc1nnc(-c2ccc(-n3c(=O)c4c(n5ncc(Cc6ccccc6)c35)CN(C(=O)c3ccc(Br)c(Cl)c3)[C@H](C)C4)cc2)[nH]1 (stereo in doubt) [Compound 53a, rac-(11R)-5-benzyl-12-(4-bromo-3-chloro-benzoyl)-11-methyl-7-[4-(5-methyl-4H-1,2,4-triazol-3-yl)phenyl]-2,3,7,12-tetrazatricyclo[7.4.0.0^2,6]trideca-1(9),3,5-trien-8-one] | < 50
8 | Cc1nnc(-c2ccc(-n3c(=O)c4c(n5ncc(Cc6ccccc6)c35)CN(C(=O)c3ccc(Br)c(Cl)c3)[C@@H](C)C4)cc2)[nH]1 (stereo in doubt) [Compound 53b, rac-(11S)-5-benzyl-12-(4-bromo-3-chloro-benzoyl)-11-methyl-7-[4-(5-methyl-4H-1,2,4-triazol-3-yl)phenyl]-2,37,12-tetrazatricyclo[7.4.0.0^2,6]trideca-1(9),3,5-trien-8-one] | 50 to 500
9 | CNC(=O)c1ccc(-n2c(=O)c3c(n4ncc(CC(C)C)c24)CN(C(=O)c2ccc(Cl)c(C(F)(F)F)c2)[C@H](C)C3)cc1 (stereo in doubt) [Compound 54a, N-methyl-4-[rac-(11R)-12-[4-chloro-3-(trifluoromethyl)benzoyl]-5-isobutyl-11-methyl-8-oxo-2,3,7,12-tetrazatricyclo[7,4.0.0^2,6]trideca-1(9),3,5-trien-7-yl]benzamide] | < 50
10 | CNC(=O)c1ccc(-n2c(=O)c3c(n4ncc(CC(C)C)c24)CN(C(=O)c2ccc(Cl)c(C(F)(F)F)c2)[C@@H](C)C3)cc1 (stereo in doubt) [Compound 54b, N-methyl-4-[rac-(11S)-12-[4-chloro-3-(trifluoromethyl)benzoyl]-5-isobutyl-11-methyl-8-oxo-2,3,7,12-tetrazatricyclo[7.4.0.0^2,6]trideca-1(9),3,5-trien-7-yl]benzamide] | 50 to 500
11 | CNC(=O)c1ccc(-n2c(=O)c3c(n4ncc(CC(C)C)c24)CN(C(=O)c2ccc(Br)c(Cl)c2)[C@H](C)C3)cc1 (stereo in doubt) [Compound 55a, N-methyl-4-[rac-(11R)-12-(4-bromo-3-chloro-benzoyl)-5-isobutyl-11-methyl-8-oxo-2,3,7,12-tetrazatricyclo[7.4.0.0^2,6]trideca-1(9),3,5-trien-7-yl]benzamide] | < 50
12 | CNC(=O)c1ccc(-n2c(=O)c3c(n4ncc(CC(C)C)c24)CN(C(=O)c2ccc(Br)c(Cl)c2)[C@@H](C)C3)cc1 (stereo in doubt) [Compound 55b, N-methyl-4-[rac-(11S)-12-(4-bromo-3-chloro-benzoyl)-5-isobutyl-11-methyl-8-oxo-2,3,7,12-tetrazatricyclo[7.4.0.0^2,6]trideca-1(9),3,5-trien-7-yl]benzamide] | 50 to 500
13 | CNc1n[nH]c2cc(-n3c(=O)c4c(n5ncc(CC(C)C)c35)CN(C(=O)c3ccc(Cl)c(C(F)(F)F)c3)[C@H](C)C4)ccc12 (stereo in doubt) [Compound 56a, rac-(11R)-12-[4-chloro-3-(trifluoromethyl)benzoyl]-5-isobutyl-11-methyl-7-[3-(methylamino)-1H-indazol-6-yl]-2,3,7,12-tetrazatricyclo[7.4.0.0^2,6]trideca-1(9),3,5-trien-8-one] | < 50
14 | CNc1n[nH]c2cc(-n3c(=O)c4c(n5ncc(CC(C)C)c35)CN(C(=O)c3ccc(Cl)c(C(F)(F)F)c3)[C@@H](C)C4)ccc12 (stereo in doubt) [Compound 56b, rac-(11S)-12-[4-chloro-3-(trifluoromethyl)benzoyl]-5-isobutyl-11-methyl-7-[3-(methylamino)-1H-indazol-6-yl]-2,3,7,12-tetrazatricyclo[7.4.0.0^2,6]trideca-1(9),3,5-trien-8-one] | 50 to 500
15 | CNc1n[nH]c2cc(-n3c(=O)c4c(n5ncc(CC(C)C)c35)CN(C(=O)c3ccc(Br)c(Cl)c3)[C@H](C)C4)ccc12 (stereo in doubt) [Compound 57a, rac-(11R)-12-(4-bromo-3-chloro-benzoyl)-5-isobutyl-11-methyl-7-[3-(methylamino)-1H-indazol-6-yl]-2,3,7,12-tetrazatricyclo[7.4.0.0^2,6]trideca-1(9),3,5-trien-8-one] | < 50
16 | CNc1n[nH]c2cc(-n3c(=O)c4c(n5ncc(CC(C)C)c35)CN(C(=O)c3ccc(Br)c(Cl)c3)[C@@H](C)C4)ccc12 (stereo in doubt) [Compound 57b, rac-(11S)-12-(4-bromo-3-chloro-benzoyl)-5-isobutyl-11-methyl-7-[3-(methylamino)-1H-indazol-6-yl]-2,3,7,12-tetrazatricyclo[7.4.0.0^2,6]trideca-1(9),3,5-trien-8-one] | 50 to 500
17 | C[C@@H]1Cc2c(n3ncc(Cc4ccccc4)c3n(-c3ccc(-c4n[nH]c(=O)n4C)cc3)c2=O)CN1C(=O)c1ccc(Br)c(C(F)(F)F)c1 (stereo in doubt) [Compound 58a, rac-(11R)-5-benzyl-12-[4-bromo-3-(trifluoromethyl)benzoyl]-11-methyl-7-[4-(4-methyl-5-oxo-1H-1,2,4-triazol-3-yl)phenyl]-2,3,7,12-tetrazatricyclo[7.4.0.0^2,6]trideca-1(9),3,5-trien-8-one] | < 50
18 | C[C@H]1Cc2c(n3ncc(Cc4ccccc4)c3n(-c3ccc(-c4n[nH]c(=O)n4C)cc3)c2=O)CN1C(=O)c1ccc(Br)c(C(F)(F)F)c1 (stereo in doubt) [Compound 58b, rac-(11S)-5-benzyl-12-[4-bromo-3-(trifluoromethyl)benzoyl]-11-methyl-7-[4-(4-methyl-5-oxo-1H-1,2,4-triazol-3-yl)phenyl]-2,3,7,12-tetrazatricyclo[7.4.0.0^2,6]trideca-1(9),3,5-trien-8-one] | < 50
19 | Cc1nnc(-c2ccc(-n3c(=O)c4c(n5ncc(CC(C)C)c35)CN(C(=O)c3ccc(Br)c(C(F)(F)F)c3)[C@H](C)C4)cc2)[nH]1 (stereo in doubt) [Compound 59a, rac-(11R)-12-[4-bromo-3-(trifluoromethyl)benzoyl]-5-isobutyl-11-methyl-7-[4-(5-methyl-4H-1,2,4-triazol-3-yl)phenyl]-2,3,7,12-tetrazatricyclo[7.4.0.0^2,6]trideca-1(9),3,5-trien-8-one] | < 50
20 | Cc1nnc(-c2ccc(-n3c(=O)c4c(n5ncc(CC(C)C)c35)CN(C(=O)c3ccc(Br)c(C(F)(F)F)c3)[C@@H](C)C4)cc2)[nH]1 (stereo in doubt) [Compound 59b, rac-(11S)-12-[4-bromo-3-(trifluoromethyl)benzoyl]-5-isobutyl-11-methyl-7-[4-(5-methyl-4H-1,2,4-triazol-3-yl)phenyl]-2,3,7,12-tetrazatricyclo[7.4.0.0^2,6]trideca-1(9),3,5-trien-8-one] | 50 to 500
21 | CNc1n[nH]c2cc(-n3c(=O)c4c(n5ncc(CC(C)C)c35)CN(C(=O)c3ccc(Br)c(C(F)(F)F)c3)[C@H](C)C4)ccc12 (stereo in doubt) [Compound 61a, rac-(11R)-12-[4-bromo-3-(trifluoromethyl)benzoyl]-5-isobutyl-11-methyl-7-[3-(methylamino)-1H-indazol-6-yl]-2,3,7,12-tetrazatricyclo[7.4.0.0^2,6]trideca-1(9),3,5-trien-8-one] | < 50
